Here are results for 2 compounds from patent US9457040B2, “Effective treatment of esophageal adenocarcinoma using triciribine and related compounds” (University of South Florida, priority 2007, dated 2016).

The subject of series [1] is advanced refractory malignancies. Particulars: patients; i.v. infusion over fifteen minutes once every three weeks, 25 to 350 mg/m^2; cited from earlier work.
The subject of series [2] is metastatic colorectal adenocarcinoma. The settings on record: patients; i.v. over 15 minutes 165 or 250 mg/m^2 once a week in three week intervals; cited from earlier work.
The conditions of series [3]: cited from earlier work.
A further series relates to advanced solid cancers. Particulars: patients; i.v. days 1, 8, 15 and 22 of a 42 day cycle, 12 to 96 mg/m^2; cited from earlier work.
The test system of series [4] is advanced squamous cell carcinoma of the cervix. Particulars: cited from earlier work.
The next series addresses PKCα (Homo sapiens, UniProt P17252). The experiment in a line: PKCα kinase activity / phospho-PKCα-T638 immunoblot. It is filed as cell-based. Particulars: anti-phospho-PKCα-T638 immunoblot.

Molecules are shown by their SMILES.

Regarding `CN1N=C(N)c2cn([C@@H]3O[C@H](COP(=O)(O)O)[C@@H](O)[C@H]3O)c3ncnc1c23` [TCN-P, triciribine phosphate], in series [1], the therapeutic response result is “limited therapeutic responses” and the toxicity result was “significant toxicity”. In addition, the clinical usefulness entry in series [2] is “lack of clinical usefulness”. In addition, in series [3], the “solubility relative to the parent drug” value is “more soluble than the parent drug”. In the series with advanced solid cancers, the toxicity result is on record as “unexpected clinical toxicity”. In series [4] (5 day continuous infusion of at least 35 mg/m^2 every six weeks), the “responses among twenty-one evaluable patients” value is “only two responses were observed”. In addition, the “activity (authors' conclusion)” value in series [4] (metastatic or recurrent squamous cell cancer of the cervix, this dose and schedule) is listed as “limited activity”.
Take `Cn1cc(C2=C(c3cn(CCCSC(=N)N)c4ccccc34)C(=O)NC2=O)c2ccccc21` [Ro 31-8220]: the “kinase activity of PKCα” value on PKCα is “inhibited”.
